Results taken from PMC5218480 (PLoS ONE, 2017).

Tested on: MV-4-11 cells
Test: Gene expression microarray analysis (Affymetrix PrimeView) and GSEA
Format: cell-based, human
Parameters: RFU PODN (11730768_x_at) / Fold change /veh PODN (11730768_x_at) / RFU LINC00158 (11744669_a_at) / Fold change /veh LINC00158 (11744669_a_at) / RFU DUSP10 (11751237_a_at) / Fold change /veh DUSP10 (11751237_a_at) / RFU ID3 (11757404_x_at) / Fold change /veh ID3 (11757404_x_at) / RFU PLEKHG5 (11737974_s_at) / Fold change /veh PLEKHG5 (11737974_s_at) / RFU LRRC4B (11730491_at) / Fold change /veh LRRC4B (11730491_at) / RFU GIMAP4 (11747438_a_at) / Fold change /veh GIMAP4 (11747438_a_at) / RFU KRT8 (11758183_x_at) / Fold change /veh KRT8 (11758183_x_at) / RFU CNN1 (11734310_a_at) / Fold change /veh CNN1 (11734310_a_at) / RFU VPS37D (11726825_at) / Fold change /veh VPS37D (11726825_at) / RFU C10orf10 (11716522_x_at) / Fold change /veh C10orf10 (11716522_x_at) / RFU KIR2DL2 /// KIR2DL4 /// KIR2DL5A /// KIR2DL5B /// KIR2DS1 /// KIR2DS2 /// KIR2DS3 /// KIR2DS4 /// KIR3DL3 /// KIR3DL3 /// KIR3DS1 (11738374_at) / Fold change /veh KIR2DL2 /// KIR2DL4 /// KIR2DL5A /// KIR2DL5B /// KIR2DS1 /// KIR2DS2 /// KIR2DS3 /// KIR2DS4 /// KIR3DL3 /// KIR3DL3 /// KIR3DS1 (11738374_at) / RFU C1QL1 (11718748_at) / Fold change /veh C1QL1 (11718748_at) / RFU TMPRSS4 (11747572_a_at) / Fold change /veh TMPRSS4 (11747572_a_at) / RFU HAMP (11756126_x_at) / Fold change /veh HAMP (11756126_x_at) / RFU RNFT2 (11725882_a_at) / Fold change /veh RNFT2 (11725882_a_at) / RFU NR4A2 (11747474_a_at) / Fold change /veh NR4A2 (11747474_a_at) / RFU ABCC12 (11746883_a_at) / Fold change /veh ABCC12 (11746883_a_at) / RFU TMEM136 (11760407_x_at) / Fold change /veh TMEM136 (11760407_x_at) / RFU CLDN22 /// WWC2 (11732394_at) / Fold change /veh CLDN22 /// WWC2 (11732394_at) / RFU HLA-DPB1 (11760878_x_at) / Fold change /veh HLA-DPB1 (11760878_x_at) / RFU SPINT1 (11716480_a_at) / Fold change /veh SPINT1 (11716480_a_at) / RFU GAP43 (11754022_s_at) / Fold change /veh GAP43 (11754022_s_at) / RFU A4GNT (11735810_at) / Fold change /veh A4GNT (11735810_at) / RFU PRB3 (11715151_x_at) / Fold change /veh PRB3 (11715151_x_at) / RFU TUBB4B (11761932_at) / Fold change /veh TUBB4B (11761932_at) / RFU CAPN14 (11732068_a_at) / Fold change /veh CAPN14 (11732068_a_at) / RFU TMCC2 (11721928_a_at) / Fold change /veh TMCC2 (11721928_a_at) / RFU IRGQ (11745062_a_at) / Fold change /veh IRGQ (11745062_a_at) / RFU FAM174B (11720279_a_at) / Fold change /veh FAM174B (11720279_a_at) / RFU TMPRSS4 (11748680_a_at) / Fold change /veh TMPRSS4 (11748680_a_at) / RFU FAM212B (11763350_a_at) / Fold change /veh FAM212B (11763350_a_at) / RFU PLEKHG5 (11743358_a_at) / Fold change /veh PLEKHG5 (11743358_a_at) / RFU ZSCAN30 (11745921_a_at) / Fold change /veh ZSCAN30 (11745921_a_at) / RFU CMKLR1 (11741424_a_at) / Fold change /veh CMKLR1 (11741424_a_at) / RFU LOC101060620 /// MAPK8IP1 (11723275_at) / Fold change /veh LOC101060620 /// MAPK8IP1 (11723275_at) / RFU SPTSSB (11747773_x_at) / Fold change /veh SPTSSB (11747773_x_at) / RFU PRSS12 (11739890_at) / Fold change /veh PRSS12 (11739890_at) / RFU BIN1 (11741810_x_at) / Fold change /veh BIN1 (11741810_x_at) / RFU WNT11 (11732464_a_at) / Fold change /veh WNT11 (11732464_a_at) / RFU C10orf10 (11716521_a_at) / Fold change /veh C10orf10 (11716521_a_at) / RFU C5orf56 (11738089_at) / Fold change /veh C5orf56 (11738089_at) / RFU CYB561 (11721691_x_at) / Fold change /veh CYB561 (11721691_x_at) / RFU ANKRD19P (11752326_a_at) / Fold change /veh ANKRD19P (11752326_a_at) / RFU OR2T12 /// OR2T33 /// OR2T8 (11738714_s_at) / Fold change /veh OR2T12 /// OR2T33 /// OR2T8 (11738714_s_at) / RFU VCAN (11748164_a_at) / Fold change /veh VCAN (11748164_a_at) / RFU JSRP1 (11732532_at) / Fold change /veh JSRP1 (11732532_at) / RFU KRTAP10-11 (11738290_x_at) / Fold change /veh KRTAP10-11 (11738290_x_at) / RFU MYO3A (11730013_a_at) / Fold change /veh MYO3A (11730013_a_at) / RFU EBF3 (11725865_a_at) / Fold change /veh EBF3 (11725865_a_at) / RFU CAMK2N1 (11719241_x_at) / Fold change /veh CAMK2N1 (11719241_x_at) / RFU C5orf56 (11738088_a_at) / Fold change /veh C5orf56 (11738088_a_at) / RFU OLFML3 (11715873_a_at) / Fold change /veh OLFML3 (11715873_a_at) / RFU LOC100653217 /// NTM (11731650_a_at) / Fold change /veh LOC100653217 /// NTM (11731650_a_at) / RFU MAPK11 (11762145_a_at) / Fold change /veh MAPK11 (11762145_a_at) / RFU FIZ1 (11724087_x_at) / Fold change /veh FIZ1 (11724087_x_at) / RFU OASL (11726364_x_at) / Fold change /veh OASL (11726364_x_at) / RFU SOX15 (11748057_x_at) / Fold change /veh SOX15 (11748057_x_at) / RFU CD79A (11719716_a_at) / Fold change /veh CD79A (11719716_a_at) / RFU HIST1H1D (11736915_at) / Fold change /veh HIST1H1D (11736915_at) / RFU CASKIN2 (11723855_a_at) / Fold change /veh CASKIN2 (11723855_a_at) / RFU LOC730098 (11760151_x_at) / Fold change /veh LOC730098 (11760151_x_at) / RFU OR4N2 (11742367_at) / Fold change /veh OR4N2 (11742367_at) / RFU PRRT2 (11749266_a_at) / Fold change /veh PRRT2 (11749266_a_at) / RFU SNX32 (11753110_a_at) / Fold change /veh SNX32 (11753110_a_at) / RFU CDHR5 (11726645_a_at) / Fold change /veh CDHR5 (11726645_a_at) / RFU RCAN1 (11760418_a_at) / Fold change /veh RCAN1 (11760418_a_at) / RFU FAM167A (11723789_a_at) / Fold change /veh FAM167A (11723789_a_at) / RFU FAM26E (11764081_at) / Fold change /veh FAM26E (11764081_at) / RFU ISYNA1 (11749810_s_at) / Fold change /veh ISYNA1 (11749810_s_at) / RFU ACY1 (11761880_at) / Fold change /veh ACY1 (11761880_at) / RFU 11764098_at / Fold change /veh 11764098_at / RFU SAMD14 (11745864_x_at) / Fold change /veh SAMD14 (11745864_x_at) / RFU NPB (11741838_a_at) / Fold change /veh NPB (11741838_a_at) / RFU TMPRSS6 (11731388_a_at) / Fold change /veh TMPRSS6 (11731388_a_at) / RFU KRTAP10-2 (11738614_at) / Fold change /veh KRTAP10-2 (11738614_at) / RFU ARHGAP8 /// PRR5-ARHGAP8 (11727945_x_at) / Fold change /veh ARHGAP8 /// PRR5-ARHGAP8 (11727945_x_at) / RFU KRTAP5-7 /// NADSYN1 (11734609_at) / Fold change /veh KRTAP5-7 /// NADSYN1 (11734609_at) / RFU RASL12 (11751679_a_at) / Fold change /veh RASL12 (11751679_a_at) / RFU CDKN2B (11736163_a_at) / Fold change /veh CDKN2B (11736163_a_at) / RFU PRF1 (11729649_at) / Fold change /veh PRF1 (11729649_at) / RFU, ZNF638 /// ZNF638-IT1 / Fold change vs veh, ZNF638 /// ZNF638-IT1 / RFU, PANK3 / Fold change vs veh, PANK3 / RFU, SH3YL1 / Fold change vs veh, SH3YL1 / RFU, ZEB2 / Fold change vs veh, ZEB2 / RFU, NRIP1 / Fold change vs veh, NRIP1 / RFU, PTTG1IP / Fold change vs veh, PTTG1IP / RFU, CAPN2 / Fold change vs veh, CAPN2 / RFU, MED14 / Fold change vs veh, MED14 / RFU, SNORA58 / Fold change vs veh, SNORA58 / RFU, C1orf63 / Fold change vs veh, C1orf63 / RFU, LRRFIP1 / Fold change vs veh, LRRFIP1 / RFU, NDUFAF7 / Fold change vs veh, NDUFAF7 / RFU, SLC12A2 / Fold change vs veh, SLC12A2 / RFU, IBTK / Fold change vs veh, IBTK / RFU, ESF1 / Fold change vs veh, ESF1 / Fold change vs veh, TMEM50B / RFU, TAOK1 / Fold change vs veh, TAOK1 / RFU, ACBD3 / Fold change vs veh, ACBD3 / RFU, TMA16 / Fold change vs veh, TMA16 / RFU, RWDD3 / Fold change vs veh, RWDD3 / RFU, BCAT1 / Fold change vs veh, BCAT1 / RFU, EDEM3 / Fold change vs veh, EDEM3 / RFU, TMEM33 / Fold change vs veh, TMEM33 / RFU, WDR75 / Fold change vs veh, WDR75 / RFU, AHCTF1 / Fold change vs veh, AHCTF1 / RFU, TFRC / Fold change vs veh, TFRC / RFU, ZDHHC17 / Fold change vs veh, ZDHHC17 / RFU, NOM1 / Fold change vs veh, NOM1 / RFU, ARL8B / Fold change vs veh, ARL8B / RFU, ZBTB11 / Fold change vs veh, ZBTB11 / RFU, TAMM41 / Fold change vs veh, TAMM41 / RFU, KIAA1704 /// LOC100996395 / Fold change vs veh, KIAA1704 /// LOC100996395 / RFU, ING1 / Fold change vs veh, ING1 / RFU, TRMT61B / Fold change vs veh, TRMT61B / RFU, FUBP3 / Fold change vs veh, FUBP3 / RFU, TP53 / Fold change vs veh, TP53 / RFU, TNKS2 / Fold change vs veh, TNKS2 / RFU, ZFP14 / Fold change vs veh, ZFP14 / RFU, ACTR2 / Fold change vs veh, ACTR2 / RFU, PPP3R1 / Fold change vs veh, PPP3R1 / RFU, PIK3R1 / Fold change vs veh, PIK3R1 / RFU, HNRNPA1 / Fold change vs veh, HNRNPA1 / RFU, RNF170 / Fold change vs veh, RNF170 / RFU, ZNF28 / Fold change vs veh, ZNF28 / RFU, RNGTT / Fold change vs veh, RNGTT / RFU, OGT / Fold change vs veh, OGT / RFU, BRD1 / Fold change vs veh, BRD1 / RFU, MARS / Fold change vs veh, MARS / RFU, ZNF655 / Fold change vs veh, ZNF655 / RFU, FAHD1 / Fold change vs veh, FAHD1 / RFU, BDP1 / Fold change vs veh, BDP1 / RFU, LRRCC1 / Fold change vs veh, LRRCC1 / RFU, ARID1A / Fold change vs veh, ARID1A / RFU, ZNF146 / Fold change vs veh, ZNF146 / RFU, ZNF330 / Fold change vs veh, ZNF330 / RFU, GPN3 / Fold change vs veh, GPN3 / RFU, C9orf123 / Fold change vs veh, C9orf123 / RFU, N4BP2L2 / Fold change vs veh, N4BP2L2 / RFU, ARFIP1 / Fold change vs veh, ARFIP1 / RFU, FAM179B / Fold change vs veh, FAM179B / RFU, BCL10 / Fold change vs veh, BCL10 / RFU, UHRF1BP1L / Fold change vs veh, UHRF1BP1L / RFU, BET1 / Fold change vs veh, BET1 / RFU, CNOT2 / Fold change vs veh, CNOT2 / RFU, ZNF268 / Fold change vs veh, ZNF268 / Fold change vs veh, ZNF507 / RFU, DGCR2 / Fold change vs veh, DGCR2 / RFU, WDSUB1 / Fold change vs veh, WDSUB1 / Fold change vs veh, HSP90B1 /// MIR3652 / RFU, ADSS / Fold change vs veh, ADSS / RFU, GK / Fold change vs veh, GK / RFU, ZNF148 / Fold change vs veh, ZNF148 / RFU, TAF9 / Fold change vs veh, TAF9 / RFU, SLC1A5 / Fold change vs veh, SLC1A5 / RFU, SLMO2 / Fold change vs veh, SLMO2 / RFU, ABCC4 / Fold change vs veh, ABCC4 / RFU, LOC101060439 /// RAP1B / Fold change vs veh, LOC101060439 /// RAP1B / RFU, RFX7 / Fold change vs veh, RFX7 / RFU, GTPBP10 / Fold change vs veh, GTPBP10 / RFU, CNEP1R1 / Fold change vs veh, CNEP1R1 / RFU, BIVM-ERCC5 /// ERCC5 / Fold change vs veh, BIVM-ERCC5 /// ERCC5 / RFU, ILF3 / Fold change vs veh, ILF3 / RFU 11762660_at / Fold change /veh 11762660_at / RFU VCAN (11757783_s_at) / Fold change /veh VCAN (11757783_s_at) / RFU DDX43 (11728927_at) / Fold change /veh DDX43 (11728927_at) / RFU KRT8 (11758188_x_at) / Fold change /veh KRT8 (11758188_x_at) / RFU NKD1 (11759106_at) / Fold change /veh NKD1 (11759106_at) / RFU SRD5A1 (11742802_a_at) / Fold change /veh SRD5A1 (11742802_a_at) / RFU TPSAB1 /// TPSB2 (11721975_s_at) / Fold change /veh TPSAB1 /// TPSB2 (11721975_s_at) / RFU GSTM3 (11746129_a_at) / Fold change /veh GSTM3 (11746129_a_at) / RFU IL23R (11737362_x_at) / Fold change /veh IL23R (11737362_x_at) / RFU TMEM51 (11727254_a_at) / Fold change /veh TMEM51 (11727254_a_at) / RFU PIWIL2 (11732686_x_at) / Fold change /veh PIWIL2 (11732686_x_at) / RFU ORM1 (11744905_x_at) / Fold change /veh ORM1 (11744905_x_at) / RFU CCDC152 (11743942_at) / Fold change /veh CCDC152 (11743942_at) / RFU ECM1 (11717891_a_at) / Fold change /veh ECM1 (11717891_a_at) / RFU IL23R (11748794_a_at) / Fold change /veh IL23R (11748794_a_at) / RFU TNFAIP8L3 (11732012_x_at) / Fold change /veh TNFAIP8L3 (11732012_x_at) / RFU MBOAT4 (11741988_at) / Fold change /veh MBOAT4 (11741988_at) / RFU 11764193_at / Fold change /veh 11764193_at / RFU TMEM53 (11763286_at) / Fold change /veh TMEM53 (11763286_at) / RFU MAGEB2 (11727129_at) / Fold change /veh MAGEB2 (11727129_at) / RFU TMEM200A (11744735_a_at) / Fold change /veh TMEM200A (11744735_a_at) / RFU CCDC152 (11751479_a_at) / Fold change /veh CCDC152 (11751479_a_at) / RFU FAM211A (11726209_a_at) / Fold change /veh FAM211A (11726209_a_at) / RFU RGS16 (11746705_a_at) / Fold change /veh RGS16 (11746705_a_at) / RFU VCAN (11755009_s_at) / Fold change /veh VCAN (11755009_s_at) / RFU RHOB (11743442_s_at) / Fold change /veh RHOB (11743442_s_at) / RFU RGS16 (11720943_a_at) / Fold change /veh RGS16 (11720943_a_at) / RFU RGS16 (11720944_at) / Fold change /veh RGS16 (11720944_at) / RFU, VPS4B / Fold change vs veh, VPS4B / RFU, CREB1 / Fold change vs veh, CREB1 / RFU, DNAJC13 / Fold change vs veh, DNAJC13 / RFU, GNAQ / Fold change vs veh, GNAQ / RFU, CDK5R1 / Fold change vs veh, CDK5R1 / RFU, ZRANB3 / Fold change vs veh, ZRANB3 / RFU, CUL4A / Fold change vs veh, CUL4A / RFU, CCNY / Fold change vs veh, CCNY / RFU, UFL1 / Fold change vs veh, UFL1 / RFU, COG3 / Fold change vs veh, COG3 / RFU, DIAPH2 / Fold change vs veh, DIAPH2 / RFU, SKA2 / Fold change vs veh, SKA2 / RFU, AFF3 / Fold change vs veh, AFF3 / RFU, LMF1 / Fold change vs veh, LMF1 / RFU, IPO11 / Fold change vs veh, IPO11 / RFU, DFFB / Fold change vs veh, DFFB / RFU, FOXP1 / Fold change vs veh, FOXP1 / RFU, CARD8 / Fold change vs veh, CARD8 / RFU, STRN3 / Fold change vs veh, STRN3 / RFU, ADK / Fold change vs veh, ADK / RFU, RASSF2 / Fold change vs veh, RASSF2 / RFU, WIPF1 / Fold change vs veh, WIPF1 / RFU, LARP1B / Fold change vs veh, LARP1B / RFU, RASA1 / Fold change vs veh, RASA1 / RFU, RB1 / Fold change vs veh, RB1 / RFU, PPFIA1 / Fold change vs veh, PPFIA1 / RFU, MAT2A / Fold change vs veh, MAT2A / RFU, CCT5 / Fold change vs veh, CCT5 / RFU, WDR92 / Fold change vs veh, WDR92 / RFU, CUX1 / Fold change vs veh, CUX1 / RFU, TTC7A / Fold change vs veh, TTC7A / RFU, TMEM135 / Fold change vs veh, TMEM135 / RFU, DEPTOR / Fold change vs veh, DEPTOR / RFU, CPM / Fold change vs veh, CPM / RFU, DNAJB6 / Fold change vs veh, DNAJB6 / RFU, CACNA2D3 / Fold change vs veh, CACNA2D3 / RFU, DTX4 / Fold change vs veh, DTX4 / RFU, TFCP2 / Fold change vs veh, TFCP2 / RFU, GMCL1 /// GMCL1P1 / Fold change vs veh, GMCL1 /// GMCL1P1 / RFU, AEBP2 / Fold change vs veh, AEBP2 / RFU, SNHG1 /// SNORD22 /// SNORD25 /// SNORD26 /// SNORD27 /// SNORD28 /// SNORD29 /// SNORD31 / Fold change vs veh, SNHG1 /// SNORD22 /// SNORD25 /// SNORD26 /// SNORD27 /// SNORD28 /// SNORD29 /// SNORD31 / Fold change (Aza/veh), C12orf56 (ProbeSet 11735607_a_at) / Fold change (ACY-1035/veh), C12orf56 (ProbeSet 11735607_a_at) / Fold change (Aza/veh), FGFR1OP (ProbeSet 11751329_s_at) / Fold change (ACY-1035/veh), FGFR1OP (ProbeSet 11751329_s_at) / Fold change (Aza/veh), VPS36 (ProbeSet 11739960_a_at) / Fold change (ACY-1035/veh), VPS36 (ProbeSet 11739960_a_at) / RFU SYPL1 (11715823_x_at) / Fold change /veh SYPL1 (11715823_x_at) / RFU IGFBP7 (11715501_s_at) / Fold change /veh IGFBP7 (11715501_s_at) / RFU REEP3 (11722064_at) / Fold change /veh REEP3 (11722064_at) / RFU IGLL1 (11728026_x_at) / Fold change /veh IGLL1 (11728026_x_at): dose or concentration left out as unconfirmed
Conditions: MV-4-11 cells, 48 hours

Nc1ncn([C@@H]2O[C@H](CO)[C@@H](O)[C@H]2O)c(=O)n1 [azacitidine]
RFU ISYNA1 (11749810_s_at): 23.56 RFU
